The source of these data is ChEMBL document CHEMBL4842331, “Targeted Discovery of the Polyene Macrolide Hexacosalactone A from Streptomyces by Reporter-Guided Selection of Fermentation Media” (J Nat Prod, 2021).

The test system of one experiment is Botryosphaeria dothidea. The experiment can be described thus: Antifungal activity against Botryosphaeria dothidea assessed as inhibition of fungal growth at 20 ug/disk by paper disk diffusion method. It counts as functional, organism-based. The note with it: dose 20.0 µg. A general note: A growth-free zone around the sample is the usual read-out of agar diffusion tests.

In the next experiment the test system is Proteus vulgaris. The experiment can be described thus: Antibacterial activity against Proteus vulgaris CPCC 160013 assessed as inhibition of bacterial growth by paper disk diffusion method. The format is functional.
In the next experiment the test system is Valsa ambiens. The experiment can be described thus: Antifungal activity against Valsa ambiens assessed as inhibition of fungal growth at 20 ug/disk by paper disk diffusion method. It counts as functional, organism-based. As to conditions: Cytospora leucosperma; dose 20.0 µg.
The test system of a further experiment is K562. The experiment can be described thus: Cytotoxicity against human K562 cells assessed as reduction in cell viability by MTT assay. It counts as functional, cell-based. (Tetrazolium dyes change colour on reduction, which living cells bring about.)
The test system of the next experiment is Staphylococcus aureus. The experiment can be described thus: Antibacterial activity against Staphylococcus aureus ATCC 25923 assessed as inhibition of bacterial growth by paper disk diffusion method. It counts as functional.
Another experiment has as its system Escherichia coli. As to the kind of experiment: Antibacterial activity against Escherichia coli DH5alpha assessed as inhibition of bacterial growth at 20 ug/disk by paper disk diffusion method. The format is functional, organism-based. The note with it: DH5[alpha], dose 20.0 µg.
The test system of another experiment is MDA-MB-231. The experiment can be described thus: Cytotoxicity against human MDA-MB-231 cells assessed as reduction in cell viability by MTT assay. It counts as functional, cell-based.
In another experiment the test system is Alternaria alternata. The experiment can be described thus: Antifungal activity against Alternaria alternata assessed as inhibition of fungal growth at 20 ug/disk by paper disk diffusion method. The format is functional, organism-based. The note with it: dose 20.0 µg.
For experiment [1], the system named is Mycolicibacterium smegmatis. As to the kind of experiment: Antibacterial activity against Mycobacterium smegmatis mc2 155 assessed as inhibition of bacterial growth at 20 ug/disk by paper disk diffusion method. It counts as functional, organism-based. The note with it: dose 20.0 µg.
Another experiment relates to Phytophthora capsici. The experiment can be described thus: Antifungal activity against Phytophthora capsici assessed as inhibition of fungal growth at 20 ug/disk by paper disk diffusion method. As to conditions: dose 20.0 µg. It counts as functional, organism-based.
The subject of a further experiment is Rhizoctonia solani. The experiment can be described thus: Antifungal activity against Rhizoctonia solani assessed as inhibition of fungal growth at 20 ug/disk by paper disk diffusion method. As to conditions: dose 20.0 µg. The format is functional, organism-based.
Another experiment relates to Pseudomonas aeruginosa. As to the kind of experiment: Antibacterial activity against Pseudomonas aeruginosa PAO1 assessed as inhibition of bacterial growth at 20 ug/disk by paper disk diffusion method. The note with it: dose 20.0 µg. The format is functional, organism-based.
A further experiment has as its system Salmonella typhimurium. The experiment can be described thus: Antibacterial activity against Salmonella enterica serovar typhimurium UK-1X8956 assessed as inhibition of bacterial growth at 20 ug/disk by paper disk diffusion method. The format is functional, organism-based. The note with it: Salmonella enterica subsp. enterica serovar Typhimurium, dose 20.0 µg.

The test system of the next experiment is NCI-H1299. The experiment can be described thus: Cytotoxicity against human NCI-H1299 cells assessed as reduction in cell viability by MTT assay. The format is functional, cell-based.

Values after ≈ are worked out from the molar mass of the structure shown. Active and inactive are the calls of the source. The rule behind the calls is not given here.

Take `CO[C@@H]1C[C@H](O)[C@@H](C)[C@H](O)[C@@H](C)C[C@@H](C)C(=O)C(C)[C@H](C(C)C)OC(=O)/C(C)=C/C=C/C(C)=C/C=C/C(C)=C\C[C@H](OC(=O)/C=C/C(=O)NC2=C(O)CCC2=O)[C@@H]1C` (some centres undefined): the outcome (in the experiment with Botryosphaeria dothidea; with Valsa ambiens; in the experiment with Escherichia coli; in the experiment on Alternaria alternata; in [1]; with Phytophthora capsici) was inactive. For the same molecule, the result in the experiment with Rhizoctonia solani, in the experiment on Pseudomonas aeruginosa and in the experiment with Salmonella typhimurium was inactive. Also, the MIC in the experiment with Proteus vulgaris and in the experiment on Staphylococcus aureus was 12.5 µg/mL (≈ 15.4 µM) in each case. Moreover, the 50% inhibitory concentration (IC50) with K562, with MDA-MB-231 and with NCI-H1299 was over 20 µM in each case.

The term MIC denotes the lowest concentration that inhibits growth of the organism. Usually IC50 stands for the concentration that gives 50% inhibition.
